According to patent US9353082B2, “Pharmaceutical compounds” (BIAL—PORTELA & CA, S.A., priority 2008, dated 2016):

Target: T1, FAAH (Rattus norvegicus, UniProt P97612)
T1 construct: Frozen brains (without cerebellum) from Wistar rats were used; from tissue; host or cells: Wistar rat brain (without cerebellum), washed membrane pellets
T1 sequence (P97612 1-579): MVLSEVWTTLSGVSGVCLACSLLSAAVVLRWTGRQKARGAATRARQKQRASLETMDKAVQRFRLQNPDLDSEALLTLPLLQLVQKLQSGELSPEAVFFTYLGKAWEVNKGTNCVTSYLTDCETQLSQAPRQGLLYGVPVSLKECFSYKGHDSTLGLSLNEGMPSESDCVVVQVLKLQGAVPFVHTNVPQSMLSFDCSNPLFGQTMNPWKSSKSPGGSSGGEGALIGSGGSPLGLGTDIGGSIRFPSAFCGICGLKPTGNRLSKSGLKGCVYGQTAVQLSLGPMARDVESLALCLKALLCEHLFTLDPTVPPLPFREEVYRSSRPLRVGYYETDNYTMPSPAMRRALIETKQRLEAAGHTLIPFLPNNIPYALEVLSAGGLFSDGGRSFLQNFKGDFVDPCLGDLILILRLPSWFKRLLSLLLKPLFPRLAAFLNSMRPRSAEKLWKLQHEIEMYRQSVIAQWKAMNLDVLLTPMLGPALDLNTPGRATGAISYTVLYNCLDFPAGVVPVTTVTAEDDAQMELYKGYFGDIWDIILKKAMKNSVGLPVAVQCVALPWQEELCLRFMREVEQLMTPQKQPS
Assay: In vitro FAAH activity in rat brain membranes, 3H-AEA substrate, % of control
Assay type: biochemical, Wistar rats
Conditions: low value = strong inhibitor; for In Vitro FAAH activity, 100 nM: 100 nM test compound; for In Vitro FAAH activity, 10 uM: 10 uM test compound
Description: 3. Biological Efficacy of Compounds of the Invention The in vitro test was performed according to the protocol described below. The controls for both in vitro and in vivo were the reaction mix minus the test compounds. Therefore, a low value in Table 1 below for the test compounds indicates a strong inhibitor.
The in vitro pharmaceutical FAAH activity was determined according to the following method:
Frozen brains (without cerebellum) from Wistar rats were used, and each brain was homogenized in 15 ml 1 mM MgCL2, […] HEPES pH 7.0 with Potter Elvejhem (8 strokes at 500 rpm). Homogenates were centrifuged for 20 min at 36000 g at 4° C. (Beckman, 70Ti rotor). Pellets were resuspended in 15 ml of the same buffer and centrifuged under the same conditions. Pellets were resuspended in 15 ml of the same buffer and incubated for 15 min at 37° C. after which they were centrifuged for 20 min at 36000 g at 4° C. Each pellet was then resuspended in 15 ml 3 mM MgCl2, 1 mM EDTA, 50 mM Tris pH 7.4 and protein determined with BioRad Protein Assay (BioRad) using a standard curve of BSA (50-250 μg/ml). The membrane suspensions were aliquoted and stored at −80° C.
The FAAH activity was determined using AEA (labelled with 3H in the ethanolamine part of the molecule) as substrate and measuring the 3H-ethanolamine formed. Reaction mix (total volume of 200 up contained: 2 μM AEA (2 μM AEA+5 nM 3H-AEA), 0.1% fatty acid free BSA, 5 μg protein, in 1 mM EDTA, 10 mM Tris pH 7.6 and 10 μM or 0.1 μM compounds. Stock solutions of the compounds to test (10 mM) were prepared in 100% DMSO and the DMSO concentration in the assay was 0.1%. After a 15 min preincubation period at 37° C., reaction was started by the addition of the substrate solution ([…]). Reaction was carried out for 10 min before termination by the addition of 400 μl activated charcoal suspension (8 g charcoal in 32 ml 0.5 M HCl in continuous agitation). After a 30 min incubation period at room temperature with agitation, charcoal was sedimented by centrifugation in microfuge (10 min at 13000 rpm). 200 μl of the supernatant were added to 800 μl Optiphase Supermix scintillation cocktail previously distributed in 24-well plates. Counts per minute (cpm) were determined in Microbeta TriLux scintillation counter (10 min counting or until s=2).
In each assay blanks (no protein, usually below 200 cpm) and controls (no compound) were present. The results are reported in Table 1 as % of control after blank subtraction.

Compound	In Vitro FAAH activity, 100 nM	also measured
CN(C(=O)n1cnc(Cc2ccccc2)n1)c1ccccc1 [Compound 160, 3-benzyl-N-methyl-N-phenyl-1H-1,2,4-triazole-1-carboxamide]	18.8 % of control	–
O=C(Nc1ccc(Oc2ccccc2)cc1)n1ccc(-c2ccccc2)n1 [Compound 10, N-(4-phenoxyphenyl)-3-phenyl-1H-pyrazole-1-carboxamide]	–	In Vitro FAAH activity, 10 uM: 55 % of control
CN(C(=O)n1cnc(-c2ccccc2)c1)C12CC3CC(CC(C3)C1)C2 [Compound 229]	99.2 % of control	–
O=C(Nc1ccc(Oc2ccccc2)cc1)n1nnc2ccccc21 [Compound 56, N-(4-phenoxyphenyl)-1H-benzo[d][1,2,3]triazole-1-carboxamide]	90.7 % of control	–
CN(Cc1ccccc1)C(=O)n1cnc(-c2ccc3ccccc3c2)n1 [Compound 190, N-benzyl-N-methyl-3-(naphthalen-2-yl)-1H-1,2,4-triazole-1-carboxamide]	20.7 % of control	–
O=C(N1CCN(c2ccccc2)CC1)n1cnc(-c2cccc3ccccc23)n1 [Compound 206, (3-(naphthalen-1-yl)-1H-1,2,4-triazol-1-yl)(4-phenylpiperazin-1-yl)methanone]	3.3 % of control	–
O=C(N1CCc2ccccc2C1)n1cnc(-c2ccccc2)c1 [Compound 184, (3,4-dihydroisoquinolin-2(1H)-yl)(4-phenyl-1H-imidazol-1-yl)methanone]	30.2 % of control	–
O=C(N1CCSC1)n1cnc(-c2ccc(F)c(F)c2)c1 [Compound 215, (4-(3,4-difluorophenyl)-1H-imidazol-1-yl)(thiazolidin-3-yl)methanone]	16.7 % of control	–
Cl.O=C(N1CCC(CCN2CCCC2)CC1)n1nnc2ccccc21 [Compound 105, (1H-benzo[d][1,2,3]triazol-1-yl)(4-(2-(pyrrolidin-1-yl)ethyl)piperidin-1-yl)methanone hydrochloride]	64.7 % of control	–
NC(=O)C1CCN(C(=O)n2nnc3ccccc32)CC1 [Compound 179, 1-(1H-benzo[d][1,2,3]triazole-1-carbonyl)piperidine-4-carboxamide]	49 % of control	–
CN(C)C(=O)n1cnc(-c2ccc(Oc3ccc(C#N)cc3)cc2)n1 [Compound 140, 3-(4-(4-cyanophenoxy)phenyl)-N,N-dimethyl-1H-1,2,4-triazole-1-carboxamide]	58.6 % of control	–
CN(C(=O)n1ccc(-c2cccnc2)n1)c1ccccc1 [Compound 24, N-methyl-N-phenyl-3-(pyridin-3-yl)-1H-pyrazole-1-carboxamide]	–	In Vitro FAAH activity, 10 uM: 22.9 % of control
CC1(C)COCN1C(=O)n1cnc(-c2ccccc2)c1 [Compound 161, (4,4-dimethyloxazolidin-3-yl)(4-phenyl-1H-imidazol-1-yl)methanone]	93.6 % of control	In Vitro FAAH activity, 10 uM: 3.3 % of control
COc1ccc(OCC2CCN(C(=O)n3nnc4ccccc43)CC2)cc1 [Compound 165, (1H-benzo[d][1,2,3]triazol-1-yl)(4-((4-methoxyphenoxy)methyl)piperidin-1-yl)methanone]	0 % of control	–
CN(C)c1ccc(N(C)C(=O)n2nnc3ccccc32)cc1 [Compound 81, N-(4-(dimethylamino)phenyl)-N-methyl-1H-benzo[d][1,2,3]triazole-1-carboxamide]	49.2 % of control	–
NC(=O)c1ccc(Oc2cccc(-c3ncn(C(=O)N4CCOCC4)n3)c2)cc1 [Compound 210, 4-(3-(1-(morpholine-4-carbonyl)-1H-1,2,4-triazol-3-yl)phenoxy)benzamide]	73.3 % of control	–

Compound	In Vitro FAAH activity, 100 nM	also measured
O=C(N1CCC2(CC1)OCCO2)n1cnc(-c2ccc(Cl)c(Cl)c2)c1 [Compound 198, (4-(3,4-dichlorophenyl)-1H-imidazol-1-yl)(1,4-dioxa-8-azaspiro[4.5]decan-8-yl)methanone]	33 % of control	–
Cl.O=C(N1CCN(Cc2ccccc2)CC1)n1nnc2ccccc21 [Compound 93, (1H-benzo[d][1,2,3]triazol-1-yl)(4-benzylpiperazin-1-yl)methanone hydrochloride]	0 % of control	–
O=C(N1CCOCC1)n1cnc(-c2ccc(N3CCN(Cc4ccccc4)CC3)cc2)n1 [Compound 133, (3-(4-(4-benzylpiperazin-1-yl)phenyl)-1H-1,2,4-triazol-1-yl)(morpholino)methanone]	90.7 % of control	–
CN(C(=O)n1nnc2cc(-c3cccc(C(N)=O)c3)ccc21)C1CCCCC1 [Compound 108, 5-(3-carbamoylphenyl)-N-cyclohexyl-N-methyl-1H-benzo[d][1,2,3]triazole-1-carboxamide]	7.4 % of control	–
O=C(N1CCC(Oc2ccccc2)CC1)n1nnc2ccccc21 [Compound 120, (1H-benzo[d][1,2,3]triazol-1-yl)(4-phenoxypiperidin-1-yl)methanone]	0.1 % of control	–
COc1cccc(OC2CCN(C(=O)n3nnc4ccccc43)CC2)c1 [Compound 166, (1H-benzo[d][1,2,3]triazol-1-yl)(4-(3-methoxyphenoxy)piperidin-1-yl)methanone]	0 % of control	–
COc1ccccc1-c1cn(C(=O)N(C)C2CCCCC2)cn1 [Compound 271, N-cyclohexyl-4-(2-methoxyphenyl)-N-methyl-1H-imidazole-1-carboxamide]	55.8 % of control	–
CN(C(=O)n1cnc(-c2cccc(-c3cccc(F)c3)c2)c1)C1CCCCC1 [Compound 246, N-cyclohexyl-4-(3′-fluorobiphenyl-3-yl)-N-methyl-1H-imidazole-1-carboxamide]	2.9 % of control	–
O=C(Nc1ccc(F)cc1F)n1nnc2ccccc21 [Compound 59, N-(2,4-difluorophenyl)-1H-benzo[d][1,2,3]triazole-1-carboxamide]	100.4 % of control	–
CC1(C)COCN1C(=O)n1cnc(-c2ccccc2)n1 [Compound 285, (4,4-dimethyloxazolidin-3-yl)(3-phenyl-1H-1,2,4-triazol-1-yl)methanone]	–	In Vitro 100 nM (FAAH activity, % of control) (rat brain membranes, compound at 100 nM): 85.4 % of control
O=C(N1CCCCCCC1)n1nnc2ccccc21 [Compound 171, azocan-1-yl(1H-benzo[d][1,2,3]triazol-1-yl)methanone]	15.2 % of control	–
O=C(N1CCN(Cc2ccccc2)CC1)n1cnc(-c2ccccc2)c1 [Compound 102, (4-benzylpiperazin-1-yl)(4-phenyl-1H-imidazol-1-yl)methanone]	0.9 % of control	–
CCN(C(=O)n1nnc2ccccc21)C1CCCCC1 [Compound 104, N-cyclohexyl-N-ethyl-1H-benzo[d][1,2,3]triazole-1-carboxamide]	94.2 % of control	–
COc1ccc(-c2ncn(C(=O)N3CCC(CCCc4ccccc4)CC3)n2)cc1 [Compound 205, (3-(4-methoxyphenyl)-1H-1,2,4-triazol-1-yl)(4-(3-phenylpropyl)piperidin-1-yl)methanone]	0.2 % of control	–
Cl.O=C(N1CCN(Cc2ccccc2)CC1)n1cnc(-c2ccc(OCc3ccccc3)cc2)n1 [Compound 125, (3-(4-(benzyloxy)phenyl)-1H-1,2,4-triazol-1-yl)(4-benzylpiperazin-1-yl)methanone hydrochloride]	53.5 % of control	–
